Laboratory results reported in ChEMBL document CHEMBL1201862, “PubChem BioAssay data set” (2004).
Calls of active or inactive are those of the source.

Columns and labels:
[1] = molecular target: Voltage-dependent T-type calcium channel subunit alpha-1H (Homo sapiens, UniProt O95180); format: functional;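 also: channel activity triggered by adding a high calcium stimulation buffer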
BJ [2] = test: cells; format: functional, cell-based; settings: Homo sapiens
[3] = DRD fibroblast viability loss – cell-based, non-viral oncogenic, luminescence, dose response (AID 1934); format: functional; settings: Homo sapiens
BJ [4] = test: BJ-TERT fibroblast viability loss – cell-based, RAS-independent, luminescence, dose response (AID 1933); format: functional; settings: Homo sapiens
BJ [5] = test: BJ-TERT-LT-ST fibroblast viability loss – cell-based, RAS-independent, luminescence, dose response (AID 1935); format: functional; settings: Homo sapiens;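 also: BJ fibroblasts immortalized with TERT plus LT and ST oncogenes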
[6] = viability loss in HEK293 cells – cell-based, plate reader, cherry-picked samples, cytotoxicity control, dose response (AID 743446); format: functional
[7] = blockers of bursicon-stimulated LGR2 cAMP reporter – cell-based, HEK293, CRE-luciferase reporter, cherry pick, set 2, dose response (AID 743343); format: functional;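 also: transfected cells were stimulated with diluted bursicon conditioned medium after compound addition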
[8] = blockade of melanocortin 4 receptor signaling – cell-based, plate reader, cherry pick, counter-screen for LGR2 antagonist project, dose response (AID 743444); format: functional;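 also: transfected HEK 293 cells stimulated with alpha-MSH peptide; potency of inhibitors of the alpha-MSH evoked signal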
Cytochrome P450 2C9 = Cytochrome P450 2C9 (Homo sapiens, UniProt P11712)
Chain of Cytochrome P450 2C9 (P11712 whole entry): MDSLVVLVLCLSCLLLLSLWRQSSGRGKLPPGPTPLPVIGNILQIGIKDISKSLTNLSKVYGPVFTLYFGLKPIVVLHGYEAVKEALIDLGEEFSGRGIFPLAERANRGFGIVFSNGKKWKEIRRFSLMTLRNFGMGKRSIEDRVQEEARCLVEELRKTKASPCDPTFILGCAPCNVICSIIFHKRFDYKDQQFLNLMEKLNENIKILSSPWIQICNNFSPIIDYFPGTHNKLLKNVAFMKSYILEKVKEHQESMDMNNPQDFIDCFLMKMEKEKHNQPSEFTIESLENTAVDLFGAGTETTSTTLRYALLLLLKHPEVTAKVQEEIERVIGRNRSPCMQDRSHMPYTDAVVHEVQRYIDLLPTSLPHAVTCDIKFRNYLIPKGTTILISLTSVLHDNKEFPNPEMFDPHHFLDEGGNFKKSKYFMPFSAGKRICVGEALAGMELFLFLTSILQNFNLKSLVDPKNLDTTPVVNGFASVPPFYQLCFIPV

Cytochrome P450 2C19 = Cytochrome P450 2C19 (Homo sapiens, UniProt P33261); test: Cytochrome panel assay with activity outcomes. Panel member name: p450-cyp2c19 Compounds with AC50 equal or less than 10 uM are considered active; format: functional; settings: read-out: AC50
Chain of Cytochrome P450 2C19 (P33261 whole entry): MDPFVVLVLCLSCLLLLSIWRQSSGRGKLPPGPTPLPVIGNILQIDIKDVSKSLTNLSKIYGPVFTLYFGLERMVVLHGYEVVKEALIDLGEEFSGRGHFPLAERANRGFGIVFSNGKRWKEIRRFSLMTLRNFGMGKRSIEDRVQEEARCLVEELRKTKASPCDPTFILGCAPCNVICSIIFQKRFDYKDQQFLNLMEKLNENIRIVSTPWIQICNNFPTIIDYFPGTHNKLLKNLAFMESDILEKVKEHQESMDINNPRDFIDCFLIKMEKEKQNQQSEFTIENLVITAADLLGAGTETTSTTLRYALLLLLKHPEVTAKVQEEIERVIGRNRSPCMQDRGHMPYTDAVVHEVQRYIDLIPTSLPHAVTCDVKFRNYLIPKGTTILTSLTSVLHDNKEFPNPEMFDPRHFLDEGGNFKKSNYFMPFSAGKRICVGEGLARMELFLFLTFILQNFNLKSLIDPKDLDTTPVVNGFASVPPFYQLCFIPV

[9] = Luminescence Cell-Based Dose Retest to Confirm Inhibitors of Cancer Stem Cells. [Related pubchem assays (depositor defined):AID2717, AID2721]; format: functional; settings: Homo sapiens
[10] = molecular target: T1, Ubiquitin-conjugating enzyme E2 N (Homo sapiens, UniProt P61088); format: functional;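 also: Dose-response confirmation in a TR-FRET assay detecting UBC13-driven polyubiquitin chain formation, inhibition measured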
T1 sequence (P61088 whole entry): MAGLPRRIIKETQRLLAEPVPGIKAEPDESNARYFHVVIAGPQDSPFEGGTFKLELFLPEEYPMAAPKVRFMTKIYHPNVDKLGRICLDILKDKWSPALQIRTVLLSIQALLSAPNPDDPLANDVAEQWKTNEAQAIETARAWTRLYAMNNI

[11] = luciferase reporter signal suppression in cells – H4 neuroglioma cells, luminescence, dose response (AID 1990); format: functional, cell-based
[12] = alpha-synuclein stem-loop luciferase translation blockers – H4 neuroglioma cells, luminescence, confirmation (AID 1988); format: functional, cell-based
Vero = test: cells; format: functional, cell-based; settings: Chlorocebus sabaeus
[13] = Luminescence Cell-Based Dose Response HTS to Identify Inhibitors of 5'UTR Stem-Loop Driven Prion Protein mRNA Translation in H4 Neuroglioblastoma Cells. [Related pubchem assays: 1827 (Project Summary), 1813 (Primary HTS)]; format: functional
INS1 = test: INS-1E survival protection against cytokine death – cell-based, luminescence, retest, dose response (AID 449756); format: functional; settings: Rattus norvegicus;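 also: cell death triggered by IL-1 beta plus TNF-alpha plus IFN-gamma mixture; protective hits raise ATP signal compared with cytokine alone wells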
[14] = NIH3T3 cell viability loss – ATP luminescence, mouse fibroblasts, counter-screen, dose response (AID 2010); format: functional, cell-based;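 also: cells exposed to compound for about 90 hours before reading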
[15] = molecular target: T2, Microphthalmia-associated transcription factor (Homo sapiens, UniProt O75030); test: reducers of TRPM1 reporter luminescence, concentration series – cell-based, SK-MEL-5, cherry-picked, set 3, MITF inhibitor project, dose response (AID 493073); format: functional;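 also: SK-MEL-5 melanoma cells with luciferase driven by the MITF target TRPM1 promoter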
T2 sequence (O75030 whole entry): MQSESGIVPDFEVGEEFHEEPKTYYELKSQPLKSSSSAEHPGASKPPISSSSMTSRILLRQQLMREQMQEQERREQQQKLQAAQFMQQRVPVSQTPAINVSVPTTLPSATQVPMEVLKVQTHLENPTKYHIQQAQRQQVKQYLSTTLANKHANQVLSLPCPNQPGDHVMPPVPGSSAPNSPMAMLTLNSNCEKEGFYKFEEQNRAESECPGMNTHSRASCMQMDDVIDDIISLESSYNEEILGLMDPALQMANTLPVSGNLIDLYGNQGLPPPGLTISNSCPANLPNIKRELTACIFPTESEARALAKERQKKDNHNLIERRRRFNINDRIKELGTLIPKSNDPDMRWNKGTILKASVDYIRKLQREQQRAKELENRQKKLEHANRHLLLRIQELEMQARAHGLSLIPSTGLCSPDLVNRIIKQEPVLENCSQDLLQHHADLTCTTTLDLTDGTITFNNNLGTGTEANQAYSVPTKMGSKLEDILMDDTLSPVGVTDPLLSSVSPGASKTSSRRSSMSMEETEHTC

[16] = Trypanosoma cruzi growth suppression in host cells – NIH3T3 host cells, beta-gal luminescence, confirmation (AID 2044); format: functional, cell-based;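 also: intracellular parasites grown in NIH/3T3 mouse fibroblasts as host cells; luminescent beta-galactosidase reporter signal from transgenic T. cruzi replicating inside host cells; inhibitors lower the luminescence signal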
[17] = off-target signal loss in HeLa-CEM21 co-culture – HeLa F-luc CTL cells, cherry-picked, counter-screen for HIV-1 Env fusion inhibitor project, dose response (AID 652040); format: functional, cell-based;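 also: potency for signal decrease marking cytotoxic or nonspecific inhibition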
[18] = blockers of HIV-1 envelope-mediated cell-cell fusion – cherry-pick, dose response (AID 652057); format: functional, cell-based
[19] = HIV-1 AD8 envelope cell-cell fusion blockers – cherry-pick, dose response (AID 652062); format: functional, cell-based;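 also: luciferase signal from cell-cell fusion driven by HIV-1 clade B AD8 Env; potency is for inhibitors of fusion seen as a drop in luminescence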
[20] = blockers of HIV-1 ZM109 envelope-driven cell-cell fusion – HeLa effector, CEM target cells, luciferase, cherry-pick, dose response (AID 652058); format: functional, cell-based;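 also: luciferase signal from HIV-1 Env mediated cell-cell fusion of effector and target cells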

Chain of Voltage-dependent T-type calcium channel subunit alpha-1H (O95180 whole entry): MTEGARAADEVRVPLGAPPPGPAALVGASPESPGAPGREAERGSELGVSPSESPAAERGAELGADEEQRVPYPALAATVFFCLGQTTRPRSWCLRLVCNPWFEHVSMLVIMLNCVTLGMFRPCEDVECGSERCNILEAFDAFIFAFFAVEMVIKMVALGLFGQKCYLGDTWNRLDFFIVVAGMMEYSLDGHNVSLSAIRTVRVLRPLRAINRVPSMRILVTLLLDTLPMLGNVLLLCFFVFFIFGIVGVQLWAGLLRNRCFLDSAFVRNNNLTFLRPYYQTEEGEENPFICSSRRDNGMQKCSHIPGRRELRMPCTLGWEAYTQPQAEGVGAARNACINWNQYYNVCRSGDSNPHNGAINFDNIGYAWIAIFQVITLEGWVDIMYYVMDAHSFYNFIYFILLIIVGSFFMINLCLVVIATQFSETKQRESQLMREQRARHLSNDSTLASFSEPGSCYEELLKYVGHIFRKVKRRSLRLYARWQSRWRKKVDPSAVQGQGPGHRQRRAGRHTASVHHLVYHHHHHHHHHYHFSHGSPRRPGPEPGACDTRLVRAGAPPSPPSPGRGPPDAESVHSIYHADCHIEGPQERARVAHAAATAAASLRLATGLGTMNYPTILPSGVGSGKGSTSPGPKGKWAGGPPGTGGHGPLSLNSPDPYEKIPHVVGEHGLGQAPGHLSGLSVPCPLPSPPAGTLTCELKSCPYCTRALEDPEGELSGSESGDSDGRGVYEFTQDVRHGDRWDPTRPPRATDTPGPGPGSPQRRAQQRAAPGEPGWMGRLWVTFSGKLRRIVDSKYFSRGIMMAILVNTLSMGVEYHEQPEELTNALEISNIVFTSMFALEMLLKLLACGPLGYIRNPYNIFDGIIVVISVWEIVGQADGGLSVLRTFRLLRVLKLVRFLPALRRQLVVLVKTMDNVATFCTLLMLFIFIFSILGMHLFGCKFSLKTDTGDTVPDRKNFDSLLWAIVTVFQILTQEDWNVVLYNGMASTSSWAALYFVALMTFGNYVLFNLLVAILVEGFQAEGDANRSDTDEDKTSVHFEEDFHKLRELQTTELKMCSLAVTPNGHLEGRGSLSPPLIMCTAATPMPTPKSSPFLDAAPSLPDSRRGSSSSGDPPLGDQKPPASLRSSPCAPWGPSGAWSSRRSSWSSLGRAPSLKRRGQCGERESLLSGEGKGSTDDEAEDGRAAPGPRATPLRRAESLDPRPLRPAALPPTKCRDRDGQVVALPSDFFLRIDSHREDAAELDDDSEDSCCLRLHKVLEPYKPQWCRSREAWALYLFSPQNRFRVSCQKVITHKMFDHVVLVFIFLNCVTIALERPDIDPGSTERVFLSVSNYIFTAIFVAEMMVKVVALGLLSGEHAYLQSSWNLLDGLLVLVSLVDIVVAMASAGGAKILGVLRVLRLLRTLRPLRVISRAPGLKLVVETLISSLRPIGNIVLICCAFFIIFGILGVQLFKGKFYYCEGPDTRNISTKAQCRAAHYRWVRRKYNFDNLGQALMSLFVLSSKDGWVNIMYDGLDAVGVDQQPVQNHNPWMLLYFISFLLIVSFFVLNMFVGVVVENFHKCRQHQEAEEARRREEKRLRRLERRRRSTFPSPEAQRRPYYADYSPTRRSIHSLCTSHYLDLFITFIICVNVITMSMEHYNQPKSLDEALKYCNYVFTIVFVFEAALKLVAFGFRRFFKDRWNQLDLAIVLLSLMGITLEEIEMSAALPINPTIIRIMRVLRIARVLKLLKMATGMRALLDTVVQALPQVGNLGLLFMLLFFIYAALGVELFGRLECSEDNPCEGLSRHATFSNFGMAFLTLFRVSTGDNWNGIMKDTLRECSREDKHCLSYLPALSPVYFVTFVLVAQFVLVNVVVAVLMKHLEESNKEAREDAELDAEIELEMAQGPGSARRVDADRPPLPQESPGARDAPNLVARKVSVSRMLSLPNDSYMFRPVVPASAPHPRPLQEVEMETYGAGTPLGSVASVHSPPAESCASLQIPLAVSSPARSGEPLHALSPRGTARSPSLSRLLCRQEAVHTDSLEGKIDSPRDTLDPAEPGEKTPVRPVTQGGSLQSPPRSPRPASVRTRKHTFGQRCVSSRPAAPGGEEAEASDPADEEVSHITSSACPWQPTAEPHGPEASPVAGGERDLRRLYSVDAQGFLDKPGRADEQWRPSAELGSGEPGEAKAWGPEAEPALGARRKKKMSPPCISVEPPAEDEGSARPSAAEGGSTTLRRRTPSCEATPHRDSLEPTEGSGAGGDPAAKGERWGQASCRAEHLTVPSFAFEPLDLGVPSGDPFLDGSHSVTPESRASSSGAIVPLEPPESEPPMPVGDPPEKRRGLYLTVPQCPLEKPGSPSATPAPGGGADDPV

COc1ccccc1N1CCN(CC(O)COc2cccc3ccccc23)CC1 (stereo unspecified) [NAFTOPIDIL]
EC50 [1]: 3.72 µM (active)

O=C(CSc1ncn(-c2ccccc2)n1)Nc1ccc(Br)cn1
EC50 [1]: 5.67 µM (active)

CCOc1cc(C2C(C#N)=C(N)OC(C)=C2C(C)=O)c(Br)c(Br)c1OC(C)C (stereo unspecified)
EC50 (BJ [2]): 14 µM (inconclusive)
EC50 [3]: 3.46 µM (active)
EC50 (BJ [4]): 2.17 µM (active)
EC50 (BJ [5]): 2.72 µM (inconclusive)

O=C(Nc1cccc(F)c1)C1CCN(c2nnnn2-c2ccccc2)CC1
EC50 [1]: 53.6 µM (active)

Clc1ccc(OCc2nc(-c3ccccn3)no2)c(Br)c1
AC50 [6]: 27.6 µM (active)
AC50 [7]: 6.73 µM (active)
AC50 [8]: 10.6 µM (active)

Cc1cccc(-n2cccc2)c1C#N
AC50 (Cytochrome P450 2C9): inconclusive

CCOc1cc2c(C)cc(=O)oc2cc1Cl
AC50 (Cytochrome P450 2C9): inconclusive
AC50 (Cytochrome P450 2C19): 14.1 µM (inconclusive)

Cc1ccccc1-c1nc(N2CCOCC2)c2ccccc2n1
AC50 (Cytochrome P450 2C9): inconclusive
AC50 (Cytochrome P450 2C19): 39.8 µM (inconclusive)

COc1cc(OC)cc(-c2sc3ccc(OC)cc3c2C#CC2(N)CCCCC2)c1
AC50 [9]: 2.96 µM (active)
IC50 [10]: > 20 µM (inactive)

Nc1[nH]nc2nc(NCc3ccccc3)c3c(c12)CCN(Cc1ccccc1)C3
EC50 [11]: 20.1 µM (active)
EC50 [12]: > 120 µM (not active)
IC50 (Vero): > 25 µM (active)
EC50 [13]: 16.3 µM (active)

COc1ccc(C(=O)NC2CCCc3c2cnn3-c2cccc(C)c2C)o1 (stereo unspecified)
IC50 (Vero): > 25 µM (active)

COc1cc(NC(=O)c2ccc([N+](=O)[O-])o2)ccc1NC(=O)c1cccs1
AC50 (INS1): 11.2 µM (active)
EC50 [14]: > 60 µM (not active)
AC50 [15]: 8.46 µM (active)
EC50 [16]: 0.548 µM (active)

CC(C)OP(=O)(Nc1cccc2ccccc12)OC(C)C
AC50 [17]: 5.98 µM (active)
AC50 [18]: 4.78 µM (active)
AC50 [19]: 7.86 µM (active)
AC50 [20]: 5.55 µM (active)

OC1(c2cccs2)C[N+](c2ccc(Br)cc2)=C2SCCCN21 (stereo unspecified)
IC50 (Vero): 14.9 µM (active)
